A short description of data set [1]: RP, Waters ACQUITY UPLC BEH C18, 100 × 1 mm, 1.7 µm, 50 °C, 0.3 mL/min, estimated dead time 0.17 min; A: water + 10 mM ammonium bicarbonate; B: 10% water + 90% methanol + 10 mM ammonium bicarbonate; gradient (min/%B) 0/0 15/100 21/100 22/0 30/0. The conditions noted are these: stereoisomer not certain.
Data set [2] can be described thus: RP, Waters ACQUITY UPLC BEH C18, 100 × 1 mm, 1.7 µm, 50 °C, 0.3 mL/min, estimated dead time 0.17 min; A: water + 0.1% formic acid + 20 mM ammonium formate; B: methanol + 0.1% formic acid + 20 mM ammonium formate; gradient (min/%B) 0/0 15/100 21/100 22/0 30/0. Particulars: stereoisomer not certain.

For the compound `CCCCc1oc2ccccc2c1C(=O)c1cc(I)c(OCCN(CC)CC)c(I)c1` [Amiodarone], the LC retention time in data set [1] is 20.1 min; in data set [2], 16.7 min.

Turning to `CC1CC2(OC2C)C(=O)OC2CC[N+]3([O-])CC=C(COC(=O)C1(C)O)C23` (stereo unspecified) [Jacobine N-oxide], the figures for the LC retention time in data set [1] and in data set [2] were 7.35 min and 6.84 min, respectively.

Regarding `CCN(CC)CCNC(=O)c1cc(S(C)(=O)=O)ccc1OC` [Tiapride], the LC retention time in data set [1] is 10.8 min; in data set [2] it was 6.49 min.

In the case of `CC(=O)c1cc2c(cc1C)C(C)(C)C(C)C2C(C)C` (stereo unspecified) [Traseolide], the results for the LC retention time in data set [1] and in data set [2] were 18.2 min and 17.8 min, respectively.

Turning to `CC1(C)SC2C(NC(=O)C(N)c3ccc(O)cc3)C(=O)N2C1C(=O)O` (stereo unspecified) [Amoxicillin], the LC retention time in data set [1] is 6.74 min; in data set [2], 5.66 min.

As for `COC(C)C(O)(C(=O)OCC1=CC[N+]2([O-])CCC(O)C12)C(C)(C)O` (stereo unspecified) [Europine N-oxide], the LC retention time in data set [1] is 7.37 min; in data set [2] it was 6.99 min.

As for `CC=C1CC2(CO)OC2(C)C(=O)OCC2=CCN3CCC(OC1=O)C23` (stereo unspecified) [Erucifoline], the figures for the LC retention time in data set [1] and in data set [2] were 10.2 min and 6 min, respectively.

Turning to `O=C(Nc1ccc([N+](=O)[O-])cc1Cl)c1cc(Cl)ccc1O` [Niclosamide], the LC retention time in data set [1] was 13.6 min; in data set [2] it was 16.7 min.

For the compound `COc1nc(C)nc(NC(=O)NS(=O)(=O)c2ccccc2OCCCl)n1` [Triasulfuron], the LC retention time was 9.67 min in data set [1] and 11.5 min in data set [2].

For `O=S(=O)(O)ON=C(Cc1c[nH]c2ccccc12)SC1OC(CO)C(O)C(O)C1O` (stereo unspecified) [Glucobrassicin], the LC retention time in data set [1] is 6.03 min; in data set [2], 6.39 min.

Turning to `CCCCC(CC)COC(=O)CC(C(=O)OCC(CC)CCCC)S(=O)(=O)O` (stereo unspecified) [Dioctylsulfosuccinate], the results for the LC retention time in data set [1] and in data set [2] were 17.3 min and 17 min, respectively.

On to `CN(C)c1ccncc1` [4-(Dimethylamino)pyridine], for which the values for the LC retention time in data set [1] and in data set [2] were 7.04 min and 4.07 min, respectively.

In the case of `CSC(=O)c1cccc2nnsc12` [Acibenzolar-S-methyl], the LC retention time in data set [1] is 14 min; in data set [2], 13.7 min.

As for `Cc1nc2ccccc2s1` [2-Methylbenzothiazole], the LC retention time in data set [1] was 12.6 min; in data set [2] it was 12.3 min.

On to `CC1CCCC(O)CCCC=Cc2cc(O)cc(O)c2C(=O)O1` (stereo not drawn) [beta Zearalenol], for which the LC retention time in data set [1] was 13.3 min; in data set [2], 13.4 min.

On to `CCC(=O)OC(Cc1ccccc1)(c1ccccc1)C(C)CN(C)C` (stereo unspecified) [Propoxyphene], for which the LC retention time in data set [1] is 16.8 min; in data set [2], 12.5 min.

Regarding `CCc1cccc(C)c1N(C(=O)CS(=O)(=O)O)C(C)C(=O)O` (stereo unspecified), the LC retention time in data set [1] was 8.62 min; in data set [2], 11 min.

With `CCC1C(=O)OCC1Cc1cncn1C` (stereo unspecified) [Pilocarpine], the results for the LC retention time in data set [1] and in data set [2] were 8.77 min and 4.92 min, respectively.

Turning to `Cn1c(=O)nc(NC(C)(C)C)[nH]c1=O`, the LC retention time in data set [1] is 6.95 min; in data set [2], 8.56 min.

Take `CCCSc1ccc2nc(NC(=O)OC)[nH]c2c1` [Albendazole]: the LC retention time in data set [1] is 14.2 min; in data set [2], 13.1 min.

Regarding `CCN(CC)C(=O)SCc1ccccc1Cl` [Orbencarb], the LC retention time in data set [1] is 16.3 min; in data set [2], 15.9 min.

For the compound `C=C1C(=O)OC2C=C(C)CCC=C(C)CCC12` (single isomer, unassigned; (+)) [(+)-Costunolide], the LC retention time in data set [1] was 15.3 min; in data set [2], 15 min.

As to `CC(C)(C)c1cc([N+](=O)[O-])cc([N+](=O)[O-])c1O` [Dinoterb], the results for the LC retention time in data set [1] and in data set [2] were 12.6 min and 15.7 min, respectively.
